Legend:
[1] = tested on: Pcy/DBA mice; test: Efficacy in Pcy/DBA mouse model of PKD, alone and with tolvaptan; assay type: in vivo;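 also: dosing began at 6 weeks of age, with endpoints collected 7 days after the last dose and PBS-injected wild-type DBA/2J mice as the normal reference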
Experimental: The efficacy of RG-NG-1015 was also evaluated in the Pcy/DBA mouse model of PKD alone and in combination with tolvaptan.
As outlined in FIGS. 6A and 6B, five groups of male Pcy/DBA mice (n=13 per treatment group) were treated subcutaneously with PBS or RG-NG-1015 at 25, 5, 1, or 0.2 mg/kg once every two weeks (Q2W). Two groups of male Pcy/DBA mice (n=13 per group) were also treated with RG-NG-1015 at 50 mg/kg once every four weeks (Q4W) or at 12.5 mg/kg once weekly (QW). Another four groups of male Pcy/DBA mice (n=13 per group) were treated subcutaneously with PBS or RG-NG-1015 at 25, 5, or 1 mg/kg Q2W in combination with tolvaptan at 0.3% (w/w chow) ad libitum. A group of male WT-BDA/2J mice received subcutaneous injections of PBS Q2W was included in the study as a normal range reference. Mice were randomized into treatment groups at 5 weeks of age, and treatment started at 6 weeks of age for 17 weeks and were sacrificed 7 days after the final treatment. Kidney weight, body weight, kidney cyst index, urine Ngal-to-Creatinine ratio (Ngal/Cr) were measured.

[2] = biological target: AMPA glutamate receptor; test: Off-target panel, ligand binding (RGLS4326)
Experimental: To identify potential candidates for off-target pharmacology, a panel of 174 targets including G-protein coupled receptors, transporters, ion channels, nuclear receptors, and cytokine receptors was evaluated in vitro for possible interactions with RGLS4326. […] AMPA receptors are ion channels on excitatory synapses in the CNS that mediate fast excitatory neurotransmission and, therefore, are key components of all neuronal networks. Such an interaction with the AMPA receptor could explain the CNS-mediated findings observed at high doses of RGLS4326 in nonclinical toxicology models.

[3] = tested on: Swiss:Rjorl male mice; test: ICV maximum tolerated dose study for RGLS4326, Study 2; assay type: in vivo, mouse
Experimental: A second MTD study for RGL4326 by ICV was conducted to assess dose selection for evaluating the compound in disease models (Table 11). In this study, a different mouse strain was evaluated (Swiss:Rjorl male mice, age 5 weeks, sourced from Janvier). Mice were placed under isoflurane anaesthesia (5% for induction and 2% for maintenance, under 100% O2) and given 5 mg/kg s.c. carprofen (Rimadyl®). They were then placed in a stereotaxic frame. A midline sagittal incision was made in the scalp and a hole was drilled in the skull over the left lateral ventricle. A stainless-steel cannula (external diameter 0.51 mm) was placed stereotaxically into the left lateral ventricle at the following coordinates: +0.5 posterior to Bregma, L±0.7 mm, V=−2.7 mm. After a 2-minute delay to allow the brain tissue to slide over the cannula, 4 μL of a solution containing 0.625 mg/mL of RG4326 was slowly infused over 2 minutes. After infusion, the cannula was left in place for a further 5 minutes to prevent backflow of the solution along the cannula track. Mice were given 5 mg/kg s.c. carprofen (Rimadyl®) at 24 and 48 hours, after surgery. Mice were monitored during 3-7 days after surgery (starting 24 h after ICV administration) and their body weight was taken daily to check their health status. For mice monitored over 7 days, body weight was taken on Day 1 and on Day 7 after surgery to check their health status.
In Study 1, 6 mice were injected with 4 μL of a solution at 0.625 mg/mL (2.5 μg total per ICV; Table 10). At the end of anesthesia, the mice remained lying on one side. They were quiet with some periods of scratching during the first hours after surgery. […] In Study 2, four mice were injected with 4 different doses of RGLS4326 (0.75, 1.0, 1.25 and 1.875 mg/mL, volume of 4 μL). One mouse that received the highest dose (1.875 mg/mL, i.e., 7.5 μg/mouse) was found dead around 24 hours after ICV injection. All other mice were in good health, until the end of the pilot study (7 days after administration).

[4] = tested on: miR-17; details: mIMCD3, mouse, Normal; value reported by Lee et al., Nat. Commun., 2019; read-out: miR-17 PD-Sig (EC50); cited from earlier work
[5] = RG-NG-1015 0.2 mg/kg SC Q2W, 17 weeks
[6] = RG-NG-1015 1 mg/kg SC Q2W + 0.3% Tolvaptan in chow
[7] = RG-NG-1015 1 mg/kg SC Q2W, 17 weeks
[8] = RG-NG-1015 5 mg/kg SC Q2W + 0.3% Tolvaptan in chow
[9] = RG-NG-1015 5 mg/kg SC Q2W, 17 weeks
[10] = RG-NG-1015 12.5 mg/kg SC QW, 17 weeks
[11] = RG-NG-1015 25 mg/kg SC Q2W + 0.3% Tolvaptan in chow
[12] = RG-NG-1015 25 mg/kg SC Q2W, 17 weeks
[13] = RG-NG-1015 50 mg/kg SC Q4W, 17 weeks

ASGSCMAFCFUFUMUSAS [RG-NG-1015]
Mean Cystic Area [1, 5]: 47.09% | Mean Cystic Area % Inhibition [1, 5]: 24.8% | Mean KW/BW [1, 5]: 78 mg/g | Mean KW/BW % Inhibition [1, 5]: 18.7% | Mean Urine Ngal/Cr [1, 5]: 18.38 mg/mg | Mean Urine Ngal/Cr % Inhibition [1, 5]: 13.5% | Mean Cystic Area [1, 6]: 41.91% | Mean Cystic Area % Inhibition [1, 6]: 34.3% | Mean Cystic Area Bliss Analysis [1, 6]: <Additive | Mean KW/BW [1, 6]: 47.1 mg/g | Mean KW/BW % Inhibition [1, 6]: 62.0% | Mean KW/BW Bliss Analysis [1, 6]: Synergistic | Mean Urine Ngal/Cr [1, 6]: 11.16 mg/mg | Mean Urine Ngal/Cr % Inhibition [1, 6]: 49.8% | Mean Urine Ngal/Cr Bliss Analysis [1, 6]: <Additive | Mean Cystic Area [1, 7]: 50.58% | Mean Cystic Area % Inhibition [1, 7]: 18.4% | Mean KW/BW [1, 7]: 82.4 mg/g | Mean KW/BW % Inhibition [1, 7]: 12.5% | Mean Urine Ngal/Cr [1, 7]: 15.18 mg/mg | Mean Urine Ngal/Cr % Inhibition [1, 7]: 29.6% | Mean Cystic Area [1, 8]: 37.47% | Mean Cystic Area % Inhibition [1, 8]: 42.5% | Mean Cystic Area Bliss Analysis [1, 8]: <Additive | Mean KW/BW [1, 8]: 45.6 mg/g | Mean KW/BW % Inhibition [1, 8]: 64.1% | Mean KW/BW Bliss Analysis [1, 8]: Synergistic | Mean Urine Ngal/Cr [1, 8]: 5.84 mg/mg | Mean Urine Ngal/Cr % Inhibition [1, 8]: 76.6% | Mean Urine Ngal/Cr Bliss Analysis [1, 8]: Additive | Mean Cystic Area [1, 9]: 44.58% | Mean Cystic Area % Inhibition [1, 9]: 29.4% | Mean KW/BW [1, 9]: 70 mg/g | Mean KW/BW % Inhibition [1, 9]: 29.9% | Mean Urine Ngal/Cr [1, 9]: 14.65 mg/mg | Mean Urine Ngal/Cr % Inhibition [1, 9]: 32.3% | Mean Cystic Area [1, 10]: 44.99% | Mean Cystic Area % Inhibition [1, 10]: 28.7% | Mean KW/BW [1, 10]: 74.5 mg/g | Mean KW/BW % Inhibition [1, 10]: 23.6% | Mean Urine Ngal/Cr [1, 10]: 8.82 mg/mg | Mean Urine Ngal/Cr % Inhibition [1, 10]: 61.6% | Mean Cystic Area [1, 11]: 38.61% | Mean Cystic Area % Inhibition [1, 11]: 40.4% | Mean Cystic Area Bliss Analysis [1, 11]: <Additive | Mean KW/BW [1, 11]: 42.2 mg/g | Mean KW/BW % Inhibition [1, 11]: 68.9% | Mean KW/BW Bliss Analysis [1, 11]: Synergistic | Mean Urine Ngal/Cr [1, 11]: 5.04 mg/mg | Mean Urine Ngal/Cr % Inhibition [1, 11]: 80.6% | Mean Urine Ngal/Cr Bliss Analysis [1, 11]: Additive | Mean Cystic Area [1, 12]: 46.46% | Mean Cystic Area % Inhibition [1, 12]: 26.0% | Mean KW/BW [1, 12]: 66.9 mg/g | Mean KW/BW % Inhibition [1, 12]: 34.3% | Mean Urine Ngal/Cr [1, 12]: 11.36 mg/mg | Mean Urine Ngal/Cr % Inhibition [1, 12]: 48.8% | Mean Cystic Area [1, 13]: 47.35% | Mean Cystic Area % Inhibition [1, 13]: 24.3% | Mean KW/BW [1, 13]: 67.1 mg/g | Mean KW/BW % Inhibition [1, 13]: 34.0% | Mean Urine Ngal/Cr [1, 13]: 9.32 mg/mg | Mean Urine Ngal/Cr % Inhibition [1, 13]: 59.1%

ASGSCMAFCFUFUMUSGS [RGLS4326, reference compound]
50% inhibitory concentration (IC50) based on ligand binding [2]: 14.2 µg/mL | IC50 ([2]; read-out: 50% inhibitory concentration (IC50) based on ligand binding): 4600 nM | toxic effects at 24, 48 or 72 hours ([3]; ICV 4 μL of 0.625 mg/mL (2.5 μg total), 6 mice): No toxic effects were observed | Dead/Total Mice, Study 2 ([3]; single ICV 2.5 μg): 0/6 | Dead/Total Mice, Study 2 ([3]; single ICV 3 μg, 7-day): 0/4 | Dead/Total Mice, Study 2 ([3]; single ICV 4 μg, 7-day): 0/4 | Dead/Total Mice, Study 2 ([3]; single ICV 5 μg, 7-day): 0/4 | Dead/Total Mice, Study 2 ([3]; single ICV 7.5 μg, 7-day): 1/4 | MTD ([3]; single ICV, Swiss:Rjorl mouse strain, predicted from Study 2): ~4 µg | EC50 [4]: 77.2 nM
